Reference: patent US20050090471A1, “Inhibitors of cyclin-dependent kinases, compositions and uses related thereto” (GPC Biotech, Inc, priority 2001, published 2005)
Like-named read-outs stand apart in the source and are kept apart here.

Legend:
HCT-116 = experiment: Calcein AM viability assay, HCT-116; type: cell-based, human; conditions: 72-hours incubation
Procedure: (§1) The potency of Cdk inhibitors, as measured by loss of cellular viability, was determined with the Calcein AM assay (Molecular Probes). Calcein AM is a substrate of intracellular esterases, which is cleaved only in viable cells to generate a fluorescent product that can be quantified with a fluorescent plate reader. The fluorescent signal is proportional to the number of viable cells, and thus loss of signal in response to the exposure of cells to Cdk inhibitors correlates with a loss of viability. This assay distinguishes cell cycle arrest from loss of viability and is thus well suited for the evaluation of Cdk inhibitors.
(§2) Cellular IC50's were determined in the human colorectal carcinoma cell line, HCT-116, and the normal human fibroblast, IMR90. Protein adjusted IC50's were also determined in HCT-116. Results are presented in Table 3 below (HCT-116 (viability/protein adjusted) and IMR-90).
(§3) HCT-116 or IMR90 cells were recovered from sub-confluent plates by trypsinization and 1,000 or 4,000 cells, respectively, were plated in 24-well dishes and incubated overnight at 37° C., 5% CO2. HCT-116 cells were cultured in RPMI-1640, 10% FCS, and IMR90 cells were cultured in Minimum Essential Medium-alpha, 10% FCS. After overnight incubation to allow.adlierence, the media was aspirated from each well and replaced with media containing a test compound at a concentration from 0 to 250 nM, spanning a total of 7 doses. The plates were returned to the incubator and cultured for an additional 3 days. […] After 72-hours incubation with the test compound, the cells were washed twice with 1×PBS, talking special care to remove all residual buffer.
(§4) A 5 μM Calcein AM. solution was prepared by dissolving a 50 μg aliquot of Calcein (Molecular Probes catalog # C3100) in 50 μl DMSO. After the Calcein had completely dissolved (10 minutes at room temperature), it was diluted into 10 ml PBS. Calcein/PBS (0.5 ml) was added to each well. The plates were incubated for 75 minutes at 37° C. (protected from light) and the fluorescent signal was read on a fluorescent plate reader (excitation 485/20 and emission 530/25).

HCT-116 cells [1] = experiment: BrdU incorporation into DNA (flow cytometry); type: cell-based, human; set-up: unit not given here; conditions: inhibition of BrdU incorporation, unit not given; for BrdU 72: analysis at 72 hours; for BrdU 24: analysis at 24 hours; for BrdU 48: analysis at 48 hours
Procedure: This method measured the percentage of cells that incorporated the nucleotide analog, BrdU, into newly synthesized DNA as cells progressed through the S phase of the cell cycle. The inhibition of BrdU incorporation was used as a measure of a Cdlc inhibitor's effect on S phase progression and DNA replication.
3 sets of HCT-116 cells (100,000 cells/set) were plated in T25 flasks and incubated with a test compound as above. Analysis was done at 24, 48, and 72 hours. BrdU was added to each T-25 flask from a stock of 10 mg/ml to a final concentration of 10 μM and the cells were incubated for an additional 16-18 hours at 37° C. The cells were then prepared for flow cytometric analysis according to manufacturer's protocol (BrdU Flow kit, BD-Pharmingen catalogue # 2354KK) as follows:
Cells were harvested (adherent and floating) from the T25 flasks directly into Falcon 12×75 flow cytometric tubes as above followed by fixation and permeabilization with the addition of 100 μl Cytofix/Cytoperm buffer (30 minutes, room temperature). The cells were then washed with 1 ml of Perm Wash buffer and the cell pellets were resuspended in 100 μl Cytoperm Plus buffer and incubated on ice for 10 minutes. The cells were then washed again with 1 ml of Perm Wash buffer and the fixation was repeated in 100 μl of Cytofix/Cyto Perm buffer for 10 minutes at room temperature. The cells were then washed with 1 ml of Perm Wash buffer. The cells were next treated for one hour at 37° C. with 100 μl DNase to expose incorporated BrdU followed by another wash step with 1 ml of Perm Wash buffer. […] Cells were protected from light and incubated at room temperature for 20-30 minutes. Following the incubation, the cells were washed with 1 ml of Perrn Wash buffer, resuspended in 300 μl of 2% FBS in PBS, and analyzed on the flow cytometer.

ADR-res = experiment: NCI panel (SRB assay), ADR-res cell line; type: cell-based, human; conditions: 48 hours incubation with compound, unit not given
Text: (§5) The evaluation of compounds at the National Cancer Institute in their panel of 60 cell lines provides a wealth of information regarding efficacy in a wide range of tumor types and genetic backgrounds. Included within this panel are cell lines derived from leukemia, melanoma and cancers of the lung, colon, brain, ovary, breast, prostate and kidney. Use of this panel provides a measure of the efficacy of compounds in cells with alterations in many genes that are associated with neoplastic transformation including p53 and Her2/Neu as well as those involved in metabolism and those which confer multi-drug resistance. The data generated in these cell lines with the protocol described below can be used to evaluate the activity of compounds.
(§6) Cells were grown in RPMI-1640 10% FCS and plated in 96 well micro-titer plates at densities ranging from 5,000 to 40,000 cells/well. The plates were incubated for 24 hours at 37° C., 5% CO2 for 24 hours. Media containing twice the desired final concentration of the compound (5 doses spanning 4 logs) was prepared and 100 μl was added to each well containing 100 μl media plus cells to yield the desired final concentration. The plates were then incubated for an additional 48 hours.
(§7) The effect of the compound on cellular viability was determined with the Sulforhodamine B (SRB) assay which measures total protein. Cells were fixed with cold TCA to a fmal concentration of 10% and incubated at 4° C. for 60 minutes. The supernatant was discarded and the plates were washed five times with water and air-dried. SRB solution at […] in 1% acetic acid was added to each well and the plates were incubated for 10 minutes at room temperature. The plates were washed five times with 1% acetic acid and air-dried. The bound stain was solubilized with 10 mM trizma base and the absorbance was read on a plate reader at […].

IMR90 = experiment: Calcein AM viability assay, IMR90; type: cell-based; conditions: IMR-90, normal human fibroblast, 72-hours incubation
Procedure: as §1, §2, §3, §4

[2] = test system: NCI panel of 60 cell lines; experiment: NCI panel of human tumor cell lines (SRB assay), MG-MID; type: cell-based; conditions: 48 hours incubation with compound
Text: as §5, §6, §7

HCT-116 cells [3] = experiment: Clonogenic survival assay with HCT-116 cells; type: cell-based; conditions: Homo sapiens
Procedure: This assay was used to determine the concentration of a compound that results irreversible loss of viability after a specified period of exposure.
Media (RPMI-1640, 10% FCS, pen/strep) was pre-warnied to 37° C. in a water bath. Cells were incubated and grown at 37° C., 5% CO2. Cells were recovered by trypsinization from sub-confluent plates and counted using a hemocytometer. 1×10^4 cells were plated in 25 mls of media in a 15 cm tissue culture dish. 14 plates were set up for each test compound, and were incubated overnight at 37° C. The compound was diluted into media at 7 concentrations and the media on the cells was replaced with that containing the test compound. Two plates were set up for each concentration of the compound to be tested, as well as two control plates without compound. […] Colonies were stained with crystal violet solution (0.4% crystal violet, 20 % ethanol) for 5 minutes, washed twice with distilled water, and counted.

arrested HCT-116 cells = experiment: Arrested cell assay (serum starvation), HCT-116; type: cell-based, human; set-up: unit not given here; conditions: serum-starved arrested cells; unit not given
Procedure: (§8) Cyclin-dependent kinase (Cdk) activity is required to promote the progression of cells through distinct phases of the cell division cycle. The proliferation of normal, non-transformed, cells in culture requires the presence of growth factors, the removal of which, through serum deprivation, leads to a loss of Cdlc activity and consequent exit from the cell cycle as cells enter the quiescent phase, Go.
HCT-116 cells were plated in triplicate for each compound concentration to be tested in RPMI 1640 media containing 10% fetal calf serum at a density of either 200 or 2,000 cells per well in 24 well dishes, and incubated overnight at 37° C., 5% CO2. The media from the plate containing 2,000 cells per well was removed, cells were washed once with serum free media and 1 ml of serum free media was placed on cells. Tle plates containing cells both in the presence and absence of serum were incubated for 6 additional days.
(§9) To ensure that the cells had indeed exited the cell cyde upon serum withdrawal, the percentage of BrdU positive cells, indicative of those progressing through S phase, was determined in each experiment. For the purpose of this experiment, cellular viability was evaluated simultaneously with the use of SNARF-1, a fluorescent substrate of intracellular esterases which are only active in viable cells. Together, the evaluation of BrdU incorporation and SNARF-1 cleavage by flow cytometry provided an assessment of the viability of arrested cells on a single cell basis. For this analysis, the cells were stained with SNARF-1 as follows and then prepared for determination of BrdU incorporation as described above.
(§10) HCT-116 and IMR90 cells were plated at the density described below in T25 flasks in serum-containing media (RPMI-1640 or MEM-a with 10% FCS, respectively). After 24 hours of growth, the media was removed and, after washing the cells, replaced with serum-free media. • HCT-116+FCS 5,000 cells • HCT-116−FCS 100,000 cells • IMR90+FCS 100,000 cells • IMR90−FCS 200,000 cells
(§11) The IMR90 cells were grown for an additional 3 days and the HCT-116 cells were grown for an additional 6 days before pulsing with BrdU. A 50 μg aliquot of SNARF-1 (Molecular Probes catalog #C1272) was dissolved in 50 μl DMSO at room temperature for 10 minutes and then diluted into 10 ml PBS. The SNARF-1 was further diluted 1:64,000 before 200 μl was added to each tube of cells which had been cultured in the presence or absence of serum and pulsed with BrdU for 20 hours. The cells were incubated at 37° C. for 30 minutes and then washed with 3 ml of PBS.
(§12) These cells were then fixed and prepared for the measurement of BrdU incorporation as described above. The percentage of viable (FL-2) and BrdU positive (FL-1) cells was determined on a FACScan flow cytometer.

arrested IMR90 cells = experiment: Arrested cell assay (serum starvation), IMR90; type: cell-based, human; set-up: unit not given here; conditions: serum-starved arrested cells; unit not given
Procedure: as §8
IMR90 cells were plated in triplicate for each compound concentration to be tested in MEM-α media containing 10% fetal calf serum at a density of either 2,000 or 20,000 cells per well in 24-well dishes and incubated overnight at 37° C., 5% CO2. The media was removed from the 20,000 cell-per-well dish, cells were washed once with serum-free media, and serum-fiee media was placed on cells. The plates containing cells both in the presence and absence of serum were incubated for 3 additional days.
as §9, §10, §11, §12

[4] = Homo sapiens, RPMI-1640 10% FCS, read-out: HCT-116 IC50 viability
[5] = 24 h exposure, read-out: HCT-116 IC50 clonogenic 24 h
[6] = plus 1 mg/ml alpha acidic glycoprotein and 45 mg/ml human serum albumin, read-out: HCT-116 IC50 protein adjusted

Structure (SMILES) | IC50 (HCT-116; [4]) [nM] | BrdU 72 (HCT-116 cells [1]) | NCI panel ADR-res (ADR-res) | IC50 (IMR90) [nM] | NCI panel MG-MID [2] [µM] | IC50 (HCT-116 cells [3]; 48 h exposure, read-out: HCT-116 IC50 clonogenic 48 h) [nM] | IC50 (HCT-116 cells [3]; 72 h exposure, read-out: HCT-116 IC50 clonogenic 72 h) [nM] | IC50 (HCT-116 cells [3]; [5]) [nM] | Arrested cell HCT (arrested HCT-116 cells) | BrdU 24 (HCT-116 cells [1]) | BrdU 48 (HCT-116 cells [1]) | Arrested cell IMR90 (arrested IMR90 cells) | IC50 (HCT-116; [6]) [nM]
CC(C)c1nn(-c2c(Cl)cc(Cl)cc2Cl)c2nc(Cc3ccc(OCCN4CCOCC4)cc3)[nH]c(=O)c12.Cl [A] | < 100 | <0.1 | <1 | < 100 | <0.1 | < 100 | < 100 | – | – | – | – | – | –
Cc1cc(-c2[nH]nc3c2C(=O)c2c(NC(=O)NN4CCN(C)CC4)cccc2-3)ccc1OCCN1CCCC1 [Compound P] | < 10 | – | – | < 100 | – | – | – | < 100 | – | – | – | – | –
CC(C)c1nn(-c2c(Cl)cc(Cl)cc2Cl)c2nc(Cc3ccc(NS(=O)(=O)CCCN4CCOCC4)cc3)[nH]c(=O)c12.Cl [D] | – | <0.1 | – | < 10 | – | – | – | – | <0.01 | <0.1 | <0.1 | >1.0 | –
Cc1cc(OCCN2CCCC2)ccc1-c1[nH]nc2c1C(=O)c1c(NC(=O)NN3CCN(C)CC3)cccc1-2.Cl.Cl.Cl [L] | – | <0.1 | >10 | > 100 | >10 | – | – | – | – | <0.1 | <0.1 | – | < 1000
CN1CCN(NC(=O)Nc2cccc3c2C(=O)c2c-3n[nH]c2-c2ccc(OCCN3CCC[C@H]3CO)cc2)CC1.Cl.Cl.Cl [M] | – | <0.1 | – | < 100 | – | – | – | – | <0.1 | <0.1 | <0.1 | >1.0 | < 1000
CN1CCN(NC(=O)Nc2cccc3c2C(=O)c2c-3n[nH]c2-c2ccc(OCCN(CCO)CCO)cc2)CC1 [N] | < 1000 | – | – | > 100 | – | – | – | – | – | – | – | – | < 1000
CN1CCN(NC(=O)Nc2cccc3c2C(=O)c2c-3n[nH]c2-c2ccc(OCCN3CC[C@H](O)C3)cc2)CC1.Cl.Cl.Cl [O] | – | <1 | – | < 100 | – | – | – | < 10 | <0.1 | <0.1 | <1 | >0.1 | –
